Measurements taken from patent US8901301B2, “Pyrrolo[2,3-]pyridine kinase inhibitors” (Plexxikon Inc., priority 2009, dated 2014).

Assays:
[1] = target: Fms (Homo sapiens, UniProt P07333); assay: Biochemical inhibitory activity, other protein kinases: Fms; details: listing of the kinase means IC50 >1 μM
[2] = target: T1, B-Raf V600E (Homo sapiens, UniProt P15056, V600E); assay: Raf biochemical kinase assay (biotin-MEK1 phosphorylation), B-Raf V600E; details: 100 μM ATP
T1 construct: purchased Upstate Biotechnology
T1 sequence (P15056 whole entry V600E): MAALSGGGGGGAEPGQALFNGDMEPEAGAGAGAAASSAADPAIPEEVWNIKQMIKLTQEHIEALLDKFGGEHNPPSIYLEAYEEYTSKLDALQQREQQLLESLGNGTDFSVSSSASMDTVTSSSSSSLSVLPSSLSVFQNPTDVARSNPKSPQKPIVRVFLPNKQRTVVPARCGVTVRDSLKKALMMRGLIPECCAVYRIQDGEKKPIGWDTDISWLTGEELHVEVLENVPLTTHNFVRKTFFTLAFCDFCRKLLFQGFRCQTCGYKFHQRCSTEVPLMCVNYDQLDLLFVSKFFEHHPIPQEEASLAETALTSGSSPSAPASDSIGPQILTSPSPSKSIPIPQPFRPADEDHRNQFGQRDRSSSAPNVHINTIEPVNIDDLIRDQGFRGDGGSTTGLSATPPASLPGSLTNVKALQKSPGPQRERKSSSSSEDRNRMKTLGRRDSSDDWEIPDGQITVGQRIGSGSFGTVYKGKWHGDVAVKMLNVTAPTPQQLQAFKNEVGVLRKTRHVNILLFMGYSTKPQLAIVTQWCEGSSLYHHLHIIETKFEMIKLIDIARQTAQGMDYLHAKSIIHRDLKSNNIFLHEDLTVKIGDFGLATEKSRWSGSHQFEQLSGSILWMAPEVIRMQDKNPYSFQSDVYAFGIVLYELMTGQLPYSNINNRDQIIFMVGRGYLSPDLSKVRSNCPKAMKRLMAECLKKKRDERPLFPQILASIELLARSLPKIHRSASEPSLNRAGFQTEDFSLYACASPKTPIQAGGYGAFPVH
Description: (§1) Assays for biochemical and cell based activity are known in the art, for example, as described in PCT publication WO 2007/002433, the disclosure of which is hereby incorporated by reference as it relates to such assays. For example, the biochemical activity IC50 values are determined with respect to inhibition of A-Raf kinase activity, B-Raf kinase activity, c-Raf-1 kinase activity, or B-Raf V600E kinase activity, where inhibition of phosphorylation of a peptide substrate is measured as a function of compound concentration. Compounds to be tested are diluted in dimethyl sulfoxide to a concentration of 0.1 mM. These are serially diluted 15 μL into 30 μL of dimethyl sulfoxide seven times in 96 well plates for a total of 8 dilution points, and for each dilution point 1 μL is added to a well of an assay plate. Plates are prepared such that each well in a 384 well plate contains 1 μL of compound in 10 μL volume with 0.1 ng Raf enzyme (i.e. any of A-Raf, B-Raf, c-Raf-1 or B-Raf V600E, Upstate Biotechnology or prepared by methods known to one of skill in the art), 50 mM HEPES, pH 7.0, 50 mM NaCl, 2 mM MgCl2, 1 mM MnCl2, 0.01% Tween-20, 1 mM DTT, and 100 nM biotin-MEK1 as substrate. The reaction is started with addition of 10 μL of 200 μM ATP (i.e. final 100 μM ATP). After incubation of the kinase reaction for 45 minutes at room temperature, 5 μL/well of Stop Solution is added (25 mM Hepes pH 7.5, 100 mM EDTA, 0.01% BSA with donor beads (Streptavidin coated beads, Perkin Elmer), acceptor beads (Protein A coated, Perkin Elmer), and anti phosphor MEK1/2 antibody (CellSignal), each at final concentration 10 μg/mL). The plates are incubated for 3 hours at room temperature and read on Envision reader (Perkin Elmer). Phosphorylation of Mek1 results in binding of the anti-phosphor-MEK1/2 antibody and association of the donor and acceptor beads such that signal correlates with kinase activity. The signal vs. compound concentration is used to determine the IC50.

[3] = Relative solubility by turbidity in aqueous buffers; type: physicochemical; details: for turbidity threshold (L, M, H) 4.5: pH 4.5 (Simulated Intestinal fluid); for turbidity threshold (L, M, H) 6.8: pH 6.8 (Simulated Intestinal fluid); for turbidity threshold (L, M, H) 7.4: pH 7.4 (Hepes Buffer)
Description: As an indication of relative solubility, the turbidity of compounds in aqueous solutions is assessed. To assess possible compound properties in different physiological compartments, such as stomach, intestine, and blood, a series of aqueous buffers with varying pH is used. Thus each compound is diluted into four different physiologically relevant buffers and solution turbidity is measured by spectrophotometry.
Compounds are dissolved at a concentration of 25 mM in dimethyl sulfoxide, then serially diluted 1:1 into a 96 well plate, diluting 10 times in pure dimethyl sulfoxide, with the final well of each row a dimethyl sulfoxide blank. In an assay plate, 99 μL of appropriate buffer is added to each well, and 1 μL of each sample dilution is added to the buffer, achieving a range of final total concentrations in aqueous solutions having different pH. The buffers used are Simulated Gastric Fluid (SGF-pH 1.5) 0.5M NaCl, pH 1.5; Simulated Intestinal fluid (SIF-pH 4.5 and pH 6.8) 0.05M NaH2PO4, pH 4.5 and 6.8; and Hepes Buffer (HEPES-pH 7.4) 10 mM HEPES, 150 mM NaCl, pH 7.4. Control compounds pyrene, estriol and propranolol HCl are also assessed. Plates are spun and then mixed for 1 minute, and the absorbance is read using a Tecan Safire II to read wavelengths in the visible range (490, 535, and 650 nm) at four locations per well, reflecting the degree of turbidity present. The average optical density for each wavelength in each well is graphed vs. compound concentration, and the concentration at which the curve crosses a threshold O.D. of 0.01 for each wavelength is reported as the endpoint turbidity assay result. The average of the three wavelengths is used to compare turbidity of compounds. Compounds are considered to have low solubility if the threshold concentration is <31.3 μM, moderate solubility if the threshold concentration is 31.3 μM to 250 μM, and high solubility if the threshold concentration is >250 μM.

[4] = target: Kdr (Homo sapiens, UniProt P35968); assay: Biochemical inhibitory activity, other protein kinases: Kdr; details: for Kinase having IC50 of >1 μM: listing of the kinase means IC50 >1 μM
Chain of Kdr (P35968 20-1356, species assumed): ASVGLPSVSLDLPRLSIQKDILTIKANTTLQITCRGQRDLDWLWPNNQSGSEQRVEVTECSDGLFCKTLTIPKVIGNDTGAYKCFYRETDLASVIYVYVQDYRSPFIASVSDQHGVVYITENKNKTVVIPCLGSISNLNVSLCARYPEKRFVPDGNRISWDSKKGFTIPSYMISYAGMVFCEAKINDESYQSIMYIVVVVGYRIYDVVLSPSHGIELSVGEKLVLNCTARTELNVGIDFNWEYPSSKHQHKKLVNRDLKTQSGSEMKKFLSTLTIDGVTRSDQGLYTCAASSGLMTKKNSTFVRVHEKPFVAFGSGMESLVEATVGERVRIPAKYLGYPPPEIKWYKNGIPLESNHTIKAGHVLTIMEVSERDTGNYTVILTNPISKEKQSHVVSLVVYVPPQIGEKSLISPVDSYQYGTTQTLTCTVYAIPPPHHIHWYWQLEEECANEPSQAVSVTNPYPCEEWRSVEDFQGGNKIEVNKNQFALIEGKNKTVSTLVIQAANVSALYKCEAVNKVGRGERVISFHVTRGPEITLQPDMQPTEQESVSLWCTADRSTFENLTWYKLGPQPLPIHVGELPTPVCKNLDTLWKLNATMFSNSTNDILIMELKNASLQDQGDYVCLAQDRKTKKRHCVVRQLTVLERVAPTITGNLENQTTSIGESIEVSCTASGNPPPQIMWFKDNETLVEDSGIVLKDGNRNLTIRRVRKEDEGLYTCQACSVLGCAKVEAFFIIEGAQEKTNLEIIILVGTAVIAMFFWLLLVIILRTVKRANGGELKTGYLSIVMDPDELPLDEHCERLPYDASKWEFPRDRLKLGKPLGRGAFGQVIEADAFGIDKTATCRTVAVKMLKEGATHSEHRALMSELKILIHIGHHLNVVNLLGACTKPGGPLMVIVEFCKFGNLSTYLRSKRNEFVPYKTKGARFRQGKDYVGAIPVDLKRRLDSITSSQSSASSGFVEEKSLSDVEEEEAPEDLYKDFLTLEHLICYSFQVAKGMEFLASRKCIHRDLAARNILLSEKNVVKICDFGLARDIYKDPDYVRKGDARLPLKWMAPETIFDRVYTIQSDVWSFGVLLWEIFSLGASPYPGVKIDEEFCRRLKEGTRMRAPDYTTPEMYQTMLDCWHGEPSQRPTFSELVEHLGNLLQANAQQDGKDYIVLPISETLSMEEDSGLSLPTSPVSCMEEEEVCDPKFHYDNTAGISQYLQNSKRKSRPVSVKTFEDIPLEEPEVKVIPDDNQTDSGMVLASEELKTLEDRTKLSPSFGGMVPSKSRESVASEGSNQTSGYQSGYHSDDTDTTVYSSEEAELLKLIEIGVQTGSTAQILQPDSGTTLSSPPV

[5] = target: T2, CYP3A4(BQ) (Homo sapiens, UniProt P08684); assay: CYP inhibition (fluorescent substrate), CYP3A4(BQ); type: in vitro ADME; details: read-out: Cyp IC50 (μM) 3A4(BQ)
T2 construct: purchased BD Biosciences
T2 sequence (P08684 whole entry): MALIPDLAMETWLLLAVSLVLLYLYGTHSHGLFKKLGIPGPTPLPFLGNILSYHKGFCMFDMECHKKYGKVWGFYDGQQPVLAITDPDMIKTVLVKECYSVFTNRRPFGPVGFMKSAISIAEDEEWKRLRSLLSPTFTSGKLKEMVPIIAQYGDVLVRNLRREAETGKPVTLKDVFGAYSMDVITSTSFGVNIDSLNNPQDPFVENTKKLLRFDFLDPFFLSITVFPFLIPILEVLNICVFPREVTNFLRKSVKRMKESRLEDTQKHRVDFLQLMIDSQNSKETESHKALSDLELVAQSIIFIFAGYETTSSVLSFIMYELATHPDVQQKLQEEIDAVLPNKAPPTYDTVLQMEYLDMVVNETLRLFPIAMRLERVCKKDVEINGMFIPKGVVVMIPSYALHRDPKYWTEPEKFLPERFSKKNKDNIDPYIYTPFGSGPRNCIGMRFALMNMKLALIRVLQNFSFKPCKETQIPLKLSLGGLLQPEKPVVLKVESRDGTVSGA
Description: CYP (Cytochrome P450) enzymes are the major drug metabolizing enzymes present in the liver. The inhibition of CYP enzyme activity (IC50) for each of CYP1A2, CYP2C19, CYP2C9, CYP2D6, CYP3A4(BFC) and CYP3A4(BQ) is determined for compounds, where inhibition of metabolism of a known substrate leads to a decrease in the fluorescence of the metabolized product. The fluorescence of the product is monitored as a function of compound concentration. Compounds are dissolved in dimethyl sulfoxide to a concentration of 100 mM. These are diluted 1 μL into 82 μL of acetonitrile. An 11 μL aliquot of this solution is then added to 204 μL of cofactor mix (1.3% NADPH Regeneration system Solution A, 1.04% NADPH Regeneration system Solution B from BD Biosciences, 5% acetonitrile and 0.05% dimethyl sulfoxide). These are then serially diluted 1:1 (160 μL to 160 μL co-factor mix) for a total of 10 points. A 10 μL aliquot of this final mixture is dispensed into 384 well assay plates and incubated for 10 minutes at 37° C. […] Assay plates are incubated at 37° C. (CYP1A2-15 min; CYP2C9-45 min; CYP2C19, 2D6 and 3A4-30 min) and read in a Tecan Safire 2 plate reader (CYP1A2, 2C19 and 3A4 409 ex/460 em; CYP2C9 and 2D6 409 ex/530 em). The signal versus compound concentration is used to determine the IC50. The enzymes and substrates for this assay are obtained from BD Biosciences.

[6] = target: T3, B-Raf (Homo sapiens, UniProt P15056); assay: Raf biochemical kinase assay (biotin-MEK1 phosphorylation), B-Raf; details: 100 μM ATP
T3 construct: purchased Upstate Biotechnology
T3 sequence (P15056 whole entry): as the sequence (P15056 whole entry V600E) above, with E600V counted along it
Description: as §1

[7] = Relative solubility by turbidity in aqueous buffers; type: physicochemical; details: pH 1.4 as headed (Simulated Gastric Fluid)

Chain of Fms (P07333 20-972, species assumed): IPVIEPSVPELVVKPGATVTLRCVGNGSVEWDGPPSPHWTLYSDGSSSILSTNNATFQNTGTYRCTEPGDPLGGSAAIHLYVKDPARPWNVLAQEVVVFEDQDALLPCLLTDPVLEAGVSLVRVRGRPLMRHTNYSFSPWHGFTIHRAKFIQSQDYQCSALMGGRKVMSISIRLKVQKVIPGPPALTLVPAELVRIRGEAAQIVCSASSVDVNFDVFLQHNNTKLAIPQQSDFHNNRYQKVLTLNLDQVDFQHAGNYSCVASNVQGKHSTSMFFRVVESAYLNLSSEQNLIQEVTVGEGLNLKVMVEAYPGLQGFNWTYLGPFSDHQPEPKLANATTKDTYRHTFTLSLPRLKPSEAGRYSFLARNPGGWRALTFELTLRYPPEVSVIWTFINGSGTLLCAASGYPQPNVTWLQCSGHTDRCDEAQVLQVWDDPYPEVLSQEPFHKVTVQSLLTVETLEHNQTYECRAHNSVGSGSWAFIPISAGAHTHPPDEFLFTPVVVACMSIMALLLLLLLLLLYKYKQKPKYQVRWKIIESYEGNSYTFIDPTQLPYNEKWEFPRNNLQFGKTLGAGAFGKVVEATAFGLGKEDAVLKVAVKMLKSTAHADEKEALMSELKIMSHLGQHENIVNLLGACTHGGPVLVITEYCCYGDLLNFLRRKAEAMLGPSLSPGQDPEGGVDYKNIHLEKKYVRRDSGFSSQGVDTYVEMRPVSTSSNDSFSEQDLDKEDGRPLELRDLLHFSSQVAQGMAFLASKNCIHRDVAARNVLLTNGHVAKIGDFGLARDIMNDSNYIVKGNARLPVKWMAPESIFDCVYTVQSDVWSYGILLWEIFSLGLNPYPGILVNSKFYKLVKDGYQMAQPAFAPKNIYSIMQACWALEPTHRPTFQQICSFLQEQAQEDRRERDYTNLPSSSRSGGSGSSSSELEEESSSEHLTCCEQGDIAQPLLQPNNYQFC

Row | Structure (SMILES) | Kinase having IC50 of >1 μM [1] | IC50 [2] [µM] | Kinase having IC50 of >1 μM [4] | IC50 [5] [µM] | IC50 [6] [µM] | Kinase having IC50 of <1 μM ([4]; listing of the kinase means IC50 <1 μM) | turbidity threshold (L, M, H) 4.5 [3] | turbidity threshold (L, M, H) 6.8 [3] | turbidity threshold (L, M, H) 7.4 [3] | turbidity threshold (L, M, H) 1.4 [7]
1 | CCCS(=O)(=O)Nc1cccc(C(=O)c2c[nH]c3ncc(C#N)cc23)c1F [Compound P-0003, propane-1-sulfonic acid [3-(5-cyano-1H-pyrrolo[2,3-b]pyridine-3-carbonyl)-2-fluoro-phenyl]-amide] | Fms | ~0.1 | Kdr | > 10 | < 1 | – | M (moderate solubility if the threshold concentration is 31.3 μM to 250 μM) | M (moderate solubility if the threshold concentration is 31.3 μM to 250 μM) | M (moderate solubility if the threshold concentration is 31.3 μM to 250 μM) | M (moderate solubility if the threshold concentration is 31.3 μM to 250 μM)
2 | N#Cc1cnc2[nH]cc(C(=O)c3c(F)ccc(NS(=O)(=O)c4cc(F)ccc4F)c3F)c2c1 [Compound P-0004, N-[3-(5-cyano-1H-pyrrolo[2,3-b]pyridine-3-carbonyl)-2,4-difluoro-phenyl]-2,5-difluoro-benzenesulfonamide] | Fms | < 0.01 | – | 5 to 10 | < 0.1 | Kdr | M (moderate solubility if the threshold concentration is 31.3 μM to 250 μM) | M (moderate solubility if the threshold concentration is 31.3 μM to 250 μM) | M (moderate solubility if the threshold concentration is 31.3 μM to 250 μM) | M (moderate solubility if the threshold concentration is 31.3 μM to 250 μM)
3 | CCCS(=O)(=O)Nc1ccc(F)c(C(=O)c2c[nH]c3ncc(C#N)cc23)c1F [Compound P-0002, propane-1-sulfonic acid [3-(5-cyano-1H-pyrrolo[2,3-b]pyridine-3-carbonyl)-2,4-difluoro-phenyl]-amide] | Fms | < 0.01 | Kdr | > 10 | < 0.1 | – | M (moderate solubility if the threshold concentration is 31.3 μM to 250 μM) | M (moderate solubility if the threshold concentration is 31.3 μM to 250 μM) | M (moderate solubility if the threshold concentration is 31.3 μM to 250 μM) | M (moderate solubility if the threshold concentration is 31.3 μM to 250 μM)
4 | CCCS(=O)(=O)Nc1ccc(F)c(C(=O)c2c[nH]c3ncc(-c4cnc(OC)nc4)cc23)c1F [Compound P-0001, propane-1-sulfonic acid {2,4-difluoro-3-[5-(2-methoxy-pyrimidin-5-yl)-1H-pyrrolo[2,3-b]pyridine-3-carbonyl]-phenyl}-amide] | Fms | < 0.01 | Kdr | > 10 | < 0.1 | – | M (moderate solubility if the threshold concentration is 31.3 μM to 250 μM) | M (moderate solubility if the threshold concentration is 31.3 μM to 250 μM) | M (moderate solubility if the threshold concentration is 31.3 μM to 250 μM) | M (moderate solubility if the threshold concentration is 31.3 μM to 250 μM)

The next lines start with results.

Row | Kinase having IC50 of >1 μM [1] | IC50 [2] [µM] | Kinase having IC50 of >1 μM [4] | IC50 [5] [µM] | IC50 [6] [µM] | Kinase having IC50 of <1 μM ([4]; listing of the kinase means IC50 <1 μM) | Structure (SMILES) | turbidity threshold (L, M, H) 4.5 [3] | turbidity threshold (L, M, H) 6.8 [3] | turbidity threshold (L, M, H) 7.4 [3] | turbidity threshold (L, M, H) 1.4 [7]
5 | Fms | < 0.01 | Kdr | > 10 | < 0.1 | – | N#Cc1cnc2[nH]cc(C(=O)c3c(F)ccc(NS(=O)(=O)N4CCCC4)c3F)c2c1 [Compound P-0006, pyrrolidine-1-sulfonic acid [3-(5-cyano-1H-pyrrolo[2,3-b]pyridine-3-carbonyl)-2,4-difluoro-phenyl]-amide] | M (moderate solubility if the threshold concentration is 31.3 μM to 250 μM) | M (moderate solubility if the threshold concentration is 31.3 μM to 250 μM) | M (moderate solubility if the threshold concentration is 31.3 μM to 250 μM) | M (moderate solubility if the threshold concentration is 31.3 μM to 250 μM)
6 | Fms | < 0.01 | Kdr | < 5 | < 1 | – | CN(C)S(=O)(=O)Nc1ccc(F)c(C(=O)c2c[nH]c3ncc(C#N)cc23)c1F [Compound P-0007, N,N-dimethylamino-sulfonic acid [3-(5-cyano-1H-pyrrolo[2,3-b]pyridine-3-carbonyl)-2,4-difluoro-phenyl]-amide] | M (moderate solubility if the threshold concentration is 31.3 μM to 250 μM) | H (high solubility if the threshold concentration is >250 μM) | H (high solubility if the threshold concentration is >250 μM) | M (moderate solubility if the threshold concentration is 31.3 μM to 250 μM)
7 | Fms | < 0.01 | Kdr | 5 to 10 | < 0.01 | – | N#Cc1cnc2[nH]cc(C(=O)c3c(F)ccc(NS(=O)(=O)c4cccc(F)c4)c3F)c2c1 [Compound P-0005, N-[3-(5-cyano-1H-pyrrolo[2,3-b]pyridine-3-carbonyl)-2,4-difluoro-phenyl]-3-fluoro-benzenesulfonamide] | M (moderate solubility if the threshold concentration is 31.3 μM to 250 μM) | M (moderate solubility if the threshold concentration is 31.3 μM to 250 μM) | M (moderate solubility if the threshold concentration is 31.3 μM to 250 μM) | M (moderate solubility if the threshold concentration is 31.3 μM to 250 μM)
